# Measurements as given in patent publication US20130259999A1, “METHOD FOR INHIBITING YEAST ACTIVITY” (PURAC BIOCHEM B.V., priority 2010, published 2013).
# Marks after values point to notes of the source that are not given here.
# Experiments:
# Candida albicans [1] = experiment: Determination of the minimal inhibitor concentration (MIC) in liquid medium; type: cell-based; conditions: C. Albicans; liquid medium pH 3.5; OD 96 hours after inoculation
# Procedure: (§1) Candida albicans was isolated from a commercial beverage, Saccharomyces cerevisiae (CBS 2190) and Zygosaccharomyces bailii (CBS 6708) were obtained from CBS (Centraalbureau voor Schimmelcultures).
# (§2) Yeast cultures were grown in liquid medium (per liter: 5 gram filtered Malt Extract from Oxoid Ltd., England, 40 gram glucose and 5 gram Bacto Peptone from Becton Dickinson, USA, at pH 3.5 prepared according to the manufacturer instructions) in screw-capped tubes for at least 48 hours at 25° C.
# (§3) For the determination of the MIC, liquid medium was prepared as described above with increasing amounts of inhibitor. 200 μl of each inhibitor-comprising medium was transferred to a panel of a sterile 96-well Microtiter plate. Completed well plates were stored at 4° C. until further use. For the inoculation of the inhibitor-containing liquid media 5 μl of a 72 to 84 hours grown culture was used. The optical density (OD) for every composition was measured 96 hours after inoculation.
# [2] = test system: Saccharomyces cerevisiae (CBS 2190); experiment: as above; type: cell-based; conditions: S. cerevisiae; liquid medium pH 3.5; OD 96 hours after inoculation
# Procedure: as §1, §2, §3
# [3] = test system: Zygosaccharomyces bailii (CBS 6708); experiment: as above; type: cell-based; conditions: Z. bailii; liquid medium pH 3.5; OD 96 hours after inoculation
# Procedure: as §1, §2, §3
# Candida albicans [4] = experiment: Combination tests: inhibition of yeast in model beverage; type: cell-based; conditions: C. Albicans, model beverage pH about 3.5, 96 hours
# Procedure: as §1
# (§4) Inhibition of yeast was evaluated for combinations of EGCG and polylysine or LAE.
# (§5) Yeast cultures were grown in model beverage which contained per litter of demineralised water: 40 g of sucrose, 0.35 g of apple flavour (Givaudan), 8.3 g of apple juice concentrate (Gargill) and 1 g of citric acid. The pH was about 3.5. Cultures were grown in screw-capped tubes for at least 48 hours at 25° C.
# (§6) The tests combining two components were carried out in sterile 96-well Microtiter plates. Model beverage was prepared as described above with increasing amounts of two different inhibitors. The concentrations of each inhibitor were presented in 8 equal concentration steps that ranged from 0 to 1-2 times the estimated MIC value of particular yeast for a particular inhibitor. 200 μl of each medium was transferred to a panel of a sterile 96-well Microtiter plate. Completed well plates were stored at 4° C. until further use. For the inoculation of this test 5 μl of a 72 to 84 hours grown culture was used. The OD for every composition was measured 96 hours after inoculation.
# [5] = test system: Saccharomyces cerevisiae (CBS 2190); experiment: as above; type: cell-based; conditions: S. cerevisiae, model beverage pH about 3.5, 96 hours
# Procedure: as §1, §4, §5, §6
# [6] = test system: Zygosaccharomyces bailii (CBS 6708); experiment: as above; type: cell-based; conditions: Z. bailii, model beverage pH about 3.5, 96 hours
# Procedure: as §1, §4, §5, §6
# Saccharomyces cerevisiae = conditions: culture medium, WO 2009/031041; cited from earlier work
# Kluyveromyces marxianus = conditions: culture medium, WO 2009/031041; cited from earlier work
# [7] = EGCG 0.07 wt. %, average of two experiments
Molecule,MIC (Candida albicans [1]),MIC [2],MIC [3],Maximum OD (Candida albicans [4]; [7]),"Maximum OD [5, 7]","Maximum OD [6, 7]",Maximum OD (Candida albicans [4]; LAE 0.002 wt. %),Maximum OD ([5]; LAE 0.001 wt. %),Maximum OD ([6]; LAE 0.002 wt. %),MIC (Saccharomyces cerevisiae) [ppm],MIC (Kluyveromyces marxianus) [ppm],Maximum OD (Candida albicans [4]; ε-polylysine 0.0005 wt. %),Maximum OD ([6]; ε-polylysine 0.0005 wt. %)
"O=C(O[C@@H]1Cc2c(O)cc(O)cc2O[C@@H]1c1cc(O)c(O)c(O)c1)c1cc(O)c(O)c(O)c1 [EGCG, Epigallocatechin gallate]",9000 ppm,5000 ppm,2000 ppm,0.40*,0.28*,0.28*,,,,,,,
"CCCCCCCCCCCC(=O)N[C@@H](CCCN=C(N)N)C(=O)OCC [LAE, lauric arginate]",>70* ppm,30-80 ppm,>70* ppm,,,,0.30,0.19,0.38,24,7,,
ε-Polylysine,>40* ppm,30-80 ppm,>40* ppm,,,,,,,,,0.32,0.40
